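A five-concentration, 48-hour dose response in 96-well plates underlies each endpoint, interpolated linearly between surrounding concentrations. GI50 is the concentration that inhibits growth by half.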 Calls of active or inactive are those of the source. No stated cut-off is given here; in the data, active = GI50 up to about 1.1 µM and inactive = higher. Where a SMILES comes first, the peptide text is derived from it. The star is where a group is joined. Boc = CC(C)(C)OC(=O)*; nBu = CCCC* Some results are limits rather than exact numbers.

Common to all, as to assay: growth of human tumour cells (NCI), 48 h
The subject of experiment [1] is MDA-MB-435.
In experiment [2] the test system is ACHN.
The test system of experiment [3] is RXF 393.
Experiment [4] relates to SN12C.
Experiment [5] concerns TK-10.
The subject of experiment [6] is LOX IMVI.
Experiment [7] concerns UACC-62.
For experiment [8], the system named is COLO 205.
Experiment [9] relates to UO-31.
For experiment [10], the system named is RPMI-8226.
Experiment [11] deals with CAKI-1.
Experiment [12] deals with OVCAR-3.
Experiment [13] has as its system SF-295.
Experiment [14] concerns IGROV-1.
For experiment [15], the system named is SW-620.
For experiment [16], the system named is OVCAR-5.
Experiment [17] deals with HCT-116.
Experiment [18] relates to SNB-19.
Experiment [19] deals with UACC-257.
Experiment [20] deals with SK-MEL-5.

With `Cc1ccc(S(=O)(=O)C2=c3ncccc3=C3C(=O)c4ccccc4C(=O)C32)cc1` (stereo not given), the GI50 was > 100 µM (inactive) in [1]; 51.3 µM (inactive) in experiment [2]; 16 µM (inactive) in [3]; > 100 µM (inactive) in experiment [4]; 8.65 µM (inactive) in experiment [5]; > 100 µM (inactive) in experiment [6]. In addition, the GI50 in experiment [7] was 23 µM (inactive); in experiment [8], > 100 µM (inactive); in [9], > 72.1 µM (inactive); in experiment [10] it was > 100 µM (inactive); in experiment [11], 64.6 µM (inactive); in experiment [12] it was 55.8 µM (inactive). The GI50 in experiment [13] is 43.1 µM (inactive); in [14], 13.9 µM (inactive); in experiment [15] it was > 100 µM (inactive); in experiment [16] it was > 10 µM (inactive); in [17], 71.6 µM (inactive); in [18], 48.9 µM (inactive). In addition, the GI50 is 66.7 µM (inactive) in experiment [19] and 2.79 µM (inactive) in experiment [20].

Consider `COC(=O)[C@@H](Nc1ccccc1)[C@@]1(C(=O)OC)SC12c1ccccc1-c1ccccc12`, for which the GI50 is 54.8 µM (inactive) in [1]; > 100 µM (inactive) in [2]; 71.3 µM (inactive) in experiment [3]; 44.6 µM (inactive) in experiment [4]; > 100 µM (inactive) in [5]; 32.7 µM (inactive) in experiment [6]. The GI50 is 45.2 µM (inactive) in [7]; > 100 µM (inactive) in [8]; 42.3 µM (inactive) in experiment [9]; 25.8 µM (inactive) in experiment [10]; > 100 µM (inactive) in experiment [11]; 43.2 µM (inactive) in [12]. Besides, the GI50 in [13] is > 100 µM (inactive); in experiment [14], > 100 µM (inactive); in experiment [15] it was 38.3 µM (inactive); in [16], > 100 µM (inactive); in [17], 12.8 µM (inactive); in experiment [18], > 100 µM (inactive). Also, the values for the GI50 in experiment [19] and in [20] were 84.3 µM (inactive) and 41.4 µM (inactive), respectively.

Consider `CC(=O)/C(=C/N1CCNC1=S)C(=O)Nc1ccccc1C`, for which the GI50 in experiment [1], in experiment [2], in experiment [3], in experiment [4], in experiment [5] and in [6] was > 100 µM (inactive) each time. The GI50 in experiment [7], in [8], in [9], in experiment [10], in experiment [11] and in experiment [12] was > 100 µM (inactive) throughout. For the same molecule, the GI50 in [13], in [14], in experiment [15], in experiment [16], in [17] and in experiment [18] was > 100 µM (inactive) in each case. Besides, the GI50 in [19] and in [20] was > 100 µM (inactive) each time.

With `Cc1ccc2[nH]c3c(C)c4cc[n+](C)cc4c(C)c3c2c1`, the GI50 in experiment [1] is 2.45 µM (inactive); in experiment [2] it was 4.92 µM (inactive); in experiment [3], 1.42 µM (inactive); in experiment [4] it was 0.271 µM (active); in experiment [5], 5.42 µM (inactive); in experiment [6], 5 µM (inactive). Also, the GI50 in [7] was 2.68 µM (inactive); in experiment [8], 0.828 µM (active); in [9] it was 5.19 µM (inactive); in experiment [10] it was 16.1 µM (inactive); in experiment [11] it was 3.59 µM (inactive); in experiment [12] it was 2.84 µM (inactive). Moreover, the GI50 was 0.462 µM (active) in [13]; 1.19 µM (inactive) in experiment [14]; 0.374 µM (active) in experiment [15]; 5 µM (inactive) in experiment [16]; 1.36 µM (inactive) in experiment [17]; 0.499 µM (active) in experiment [18]. Further, the GI50 was 3.71 µM (inactive) in experiment [19] and 1.65 µM (inactive) in experiment [20].

With `CC(=C(C(N)=O)C(N)=O)C1C=C(c2cccs2)CC(c2ccc(Cl)cc2)=C1O` (stereo not given), the GI50 in experiment [1] is 42.2 µM (inactive); in experiment [2], 52.5 µM (inactive); in experiment [3], > 100 µM (inactive); in [4] it was 32 µM (inactive); in experiment [5] it was 45.3 µM (inactive); in experiment [6], 19.8 µM (inactive). For the same molecule, the GI50 is 25.1 µM (inactive) in [7]; 42 µM (inactive) in [8]; 16.4 µM (inactive) in [9]; 20.4 µM (inactive) in experiment [10]; 44.3 µM (inactive) in experiment [11]; 22.3 µM (inactive) in experiment [12]. Also, the GI50 in experiment [13] is 82.8 µM (inactive); in experiment [14], 35 µM (inactive); in experiment [15] it was 82.8 µM (inactive); in experiment [16] it was > 100 µM (inactive); in [17], 8.85 µM (inactive); in experiment [18], 77.8 µM (inactive). For the same molecule, the GI50 in experiment [19] is 14.5 µM (inactive); in experiment [20], 20.3 µM (inactive).

As to `CN(Cc1cnc2nc(N)nc(N)c2n1)c1ccc(C(=O)NC(CCC(=O)O)C(=O)O)cc1` (stereo not given), the GI50 in experiment [1] is < 0.01 µM (active); in [2] it was 0.0204 µM (active); in experiment [3], > 100 µM (inactive); in experiment [4], < 0.011 µM (active); in experiment [5] it was 0.869 µM (active); in experiment [6] it was < 0.01 µM (active). Besides, the GI50 in [7] was < 0.0136 µM (active); in [8] it was 0.705 µM (active); in experiment [9], 0.232 µM (active); in experiment [10], < 0.0284 µM (active); in [11], < 0.0157 µM (active); in experiment [12] it was 0.111 µM (active). Besides, the GI50 in experiment [13] was < 0.0256 µM (active); in [14], 0.082 µM (active); in [15], < 0.01 µM (active); in experiment [16], > 100 µM (inactive); in [17], < 0.01 µM (active); in experiment [18] it was 0.619 µM (active). Besides, the values for the GI50 in experiment [19] and in experiment [20] were 0.815 µM (active) and 0.0661 µM (active), respectively.

With `CC(C)(C)OC(=O)N1CCCC1C(=O)NC(c1ccccc1)c1ccccc1` (stereo not given), the GI50 in experiment [1], in experiment [2], in experiment [3], in [4], in experiment [5] and in experiment [6] was > 100 µM (inactive) throughout. The GI50 in [7], in [8], in experiment [9], in experiment [10], in [11] and in experiment [12] was > 100 µM (inactive) in each case. In addition, the GI50 in experiment [13], in experiment [14], in experiment [15], in experiment [16], in experiment [17] and in experiment [18] was > 100 µM (inactive) throughout. The GI50 in experiment [19] and in experiment [20] was > 100 µM (inactive) in each case.

For the molecule `C(=N\c1ccc(-c2cc(-c3ccccc3)nc3ccc4ccccc4c23)cc1)/c1ccccc1`, the GI50 in experiment [1] is 21.2 µM (inactive); in [2], 34.6 µM (inactive); in experiment [3], 9.68 µM (inactive); in experiment [4], 8.39 µM (inactive); in [5], 22.3 µM (inactive); in experiment [6] it was 19.9 µM (inactive). For the same molecule, the GI50 in experiment [7] was 20.8 µM (inactive); in experiment [8], 13.6 µM (inactive); in [9], 15.9 µM (inactive); in [10], 15.6 µM (inactive); in [11] it was 23.3 µM (inactive); in experiment [12], 20.4 µM (inactive). In addition, the GI50 in [13] was 10.9 µM (inactive); in experiment [14], 37.3 µM (inactive); in [15], 26.2 µM (inactive); in [16], 56.1 µM (inactive); in experiment [17], 16.6 µM (inactive); in experiment [18], 18.5 µM (inactive). For the same molecule, the GI50 in experiment [19] was 23.5 µM (inactive); in experiment [20], 17.4 µM (inactive).

For the molecule `CCCCOc1ccc(CC(NC(=O)OC(C)(C)C)C(=O)NC(C)C(=O)NC(Cc2ccccc2)C(=O)NCC(N)=O)cc1` (stereo not given) (Boc-Y(nBu)AFG-NH2; configuration not given here), the GI50 in [1] was > 100 µM (inactive); in experiment [2], > 100 µM (inactive); in [3], > 100 µM (inactive); in [4], > 100 µM (inactive); in experiment [5], > 100 µM (inactive); in [6], 65 µM (inactive). The GI50 in experiment [7] is > 100 µM (inactive); in experiment [8] it was > 100 µM (inactive); in [9], > 100 µM (inactive); in [10] it was 32.6 µM (inactive); in experiment [11], > 100 µM (inactive); in [12] it was > 100 µM (inactive). Moreover, the GI50 in experiment [13] is > 100 µM (inactive); in experiment [14], 31.3 µM (inactive); in experiment [15], > 100 µM (inactive); in experiment [16] it was > 100 µM (inactive); in experiment [17], > 100 µM (inactive); in experiment [18], > 100 µM (inactive). Moreover, the GI50 in [19] and in experiment [20] was > 100 µM (inactive) throughout.

Regarding `CCOC(=O)C(CC(C)C)NC(=O)C(Cc1ccc(N(CCCl)CCCl)cc1)NC(C)=O` (stereo not given), the GI50 in experiment [1] is 3.41 µM (inactive); in experiment [2], 2.08 µM (inactive); in experiment [3], 1.93 µM (inactive); in experiment [4], 2.45 µM (inactive); in experiment [5], 15.2 µM (inactive); in experiment [6] it was 2.68 µM (inactive). The GI50 was 1.4 µM (inactive) in [7]; 3.7 µM (inactive) in [8]; 8.02 µM (inactive) in experiment [9]; 2.82 µM (inactive) in experiment [10]; 1.29 µM (inactive) in [11]; 4.56 µM (inactive) in experiment [12]. Besides, the GI50 in experiment [13] was 7.05 µM (inactive); in experiment [14], 11.2 µM (inactive); in experiment [15], 7.73 µM (inactive); in experiment [16], 12.7 µM (inactive); in experiment [17] it was 18.7 µM (inactive); in experiment [18], 14 µM (inactive). Further, the results for the GI50 in experiment [19] and in experiment [20] were 3.74 µM (inactive) and 3.3 µM (inactive), respectively.
